Measured values published in PubChem BioAssay AID330 (DTP/NCI, 2004).
Values joined by “and” are separate entries in the source; they are usually repeats but may differ in a detail not shown here. Equal entries are not always repeated. Inconclusive results and toxic doses are left out. The calls were made as follows: active = survival T/C of 150% or more; inactive = T/C below 125% in these data. Peptide text beside a SMILES is read from it. * marks the point of attachment. Cbz = O=C(OCc1ccccc1)*; OBn = c1ccc(CO*)cc1

Test system: P388 leukemia ip, CD2F1 mice, survival T/C
Assay: NCI In Vivo Anticancer Drug Screen. Data for tumor model P388 Leukemia (intraperitoneal) in CD2F1 (CDF1) mice
Conditions: endpoint: median survival time, higher = longer survival
Method in brief: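 Mice carrying the transplanted tumor received test compound or vehicle. Survival was recorded in each group, and the value is the treated-group measurement divided by that of the vehicle-treated control group.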

[1] = dose: 100.0 mg/kg/injection, schedule: Q04DX002 (ip), vehicle: saline with Tween-80
[2] = dose: 50.0 mg/kg/injection, schedule: Q01DX005 (ip), vehicle: saline with Tween-80
[3] = dose: 100.0 mg/kg/injection, schedule: Q01DX005 (ip), vehicle: saline with Tween-80
[4] = dose: 200.0 mg/kg/injection, schedule: Q01DX005 (ip), vehicle: saline with Tween-80
[5] = dose: 50.0 mg/kg/injection, schedule: Q01DX005 (ip), vehicle: Klucel (hydroxypropylcellulose) (HPC)
[6] = dose: 100.0 mg/kg/injection, schedule: Q01DX005 (ip), vehicle: Klucel (hydroxypropylcellulose) (HPC)
[7] = dose: 200.0 mg/kg/injection, schedule: Q01DX005 (ip), vehicle: Klucel (hydroxypropylcellulose) (HPC)
[8] = dose: 200.0 mg/kg/injection, schedule: Q01DX009 (ip), vehicle: saline with Tween-80
[9] = dose: 60.0 mg/kg/injection, schedule: Q01DX005 (ip), vehicle: saline with Tween-80
[10] = dose: 120.0 mg/kg/injection, schedule: Q01DX005 (ip), vehicle: saline with Tween-80
[11] = dose: 240.0 mg/kg/injection, schedule: Q01DX005 (ip), vehicle: saline with Tween-80
[12] = dose: 50.0 mg/kg/injection, schedule: Q01DX009 (ip), vehicle: saline with Tween-80
[13] = dose: 100.0 mg/kg/injection, schedule: Q01DX009 (ip), vehicle: saline with Tween-80

Measured: T/C

CN=C(N)NN=C(c1ccc(I)cc1)c1ccc(I)cc1
inactive: dose: 25.0 mg/kg/injection, schedule: Q04DX002 (ip), vehicle: saline with Tween-80 104 % of control | dose: 50.0 mg/kg/injection, schedule: Q04DX002 (ip), vehicle: saline with Tween-80 106 % of control | [1] 104 % of control

O[C@H]1CCC[C@H]1NCc1ccnc2cc(Cl)ccc12
inactive: [2] 100 % of control | [3] 89 % of control | [4] 91 % of control

N#Cc1c(C(F)(F)F)cc(-c2cccs2)nc1SC(C(=O)Nc1cc(C(F)(F)F)cc(C(F)(F)F)c1)c1ccccc1 (stereo unspecified)
inactive: [5] 106 % of control | [6] 88 % of control | [7] 90 % of control

O=[N+]([O-])c1ccc2c(N=Nc3c(O)ccc4ccccc34)c(O)cc(S(=O)(=O)O)c2c1
inactive: dose: 100.0 mg/kg/injection, schedule: Q04DX003 (ip), vehicle: saline 100 % of control | dose: 132.0 mg/kg/injection, schedule: Q01DX009 (ip), vehicle: saline with Tween-80 109 % of control | [8] 109 % of control | dose: 200.0 mg/kg/injection, schedule: Q04DX003 (ip), vehicle: saline 100 % of control | dose: 300.0 mg/kg/injection, schedule: Q01DX009 (ip), vehicle: saline with Tween-80 113 % of control | dose: 400.0 mg/kg/injection, schedule: Q04DX003 (ip), vehicle: saline 111 % of control

CN(C)CCSc1nnc(N)s1
inactive: dose: 25.0 mg/kg/injection, schedule: Q01DX001 (ip), vehicle: saline 108 % of control | dose: 50.0 mg/kg/injection, schedule: Q01DX001 (ip), vehicle: saline 109 % of control | dose: 100.0 mg/kg/injection, schedule: Q01DX001 (ip), vehicle: saline 105 % of control and 109 % of control | dose: 200.0 mg/kg/injection, schedule: Q01DX001 (ip), vehicle: saline 94 % of control

CN(C)C1=CC(=O)NC(c2ccccc2)C1 (stereo unspecified)
inactive: [5] 102 % of control | [6] 99 % of control | [7] 99 % of control

O=C1c2ccccc2C(=O)N1C1Nc2ccccc2N1
inactive: [9] 99 % of control | [10] 99 % of control | [11] 96 % of control

CNC(=O)NS(=O)(=O)c1cnccc1Cl
inactive: dose: 100.0 mg/kg/injection, schedule: Q01DX001 (ip), vehicle: saline with Tween-80 97 % of control | dose: 200.0 mg/kg/injection, schedule: Q01DX001 (ip), vehicle: saline with Tween-80 100 % of control | dose: 400.0 mg/kg/injection, schedule: Q01DX001 (ip), vehicle: saline with Tween-80 97 % of control

C=C(C)C(=O)N(C)c1nc(N(C)C)nc(N(C)C)n1
inactive: [5] 101 % of control | [6] 103 % of control | [7] 103 % of control

CC(C)C(NC(=O)C(CCCCNC(=O)OCc1ccccc1)NC(=O)OCc1ccccc1)C(=O)OCc1ccccc1 (stereo unspecified) (Cbz-Lys(Cbz)-Val-OBn; configuration not given here)
inactive: [2] 89 % of control | [3] 91 % of control | [4] 103 % of control

OC1(C#Cc2ccccc2)c2ccccc2C(O)(C#Cc2ccccc2)c2cnccc21 (stereo unspecified)
inactive: [12] 95 % of control | [13] 93 % of control | [8] 87 % of control

COc1cc2c(cc1O)C(O)CCCC2 (stereo unspecified)
inactive: [12] 107 % of control | [13] 108 % of control | [8] 110 % of control

O=C1c2ccccc2C2(O)C3c4ccccc4CCN3CN12 (stereo unspecified)
inactive: [5] 100 % of control | [6] 101 % of control | [7] 101 % of control

CCCCN1CSC2CCCCC21 (stereo unspecified)
inactive: dose: 25.0 mg/kg/injection, schedule: Q01DX005 (ip), vehicle: saline 98 % of control | dose: 50.0 mg/kg/injection, schedule: Q01DX005 (ip), vehicle: saline 111 % of control and 93 % of control | dose: 100.0 mg/kg/injection, schedule: Q01DX005 (ip), vehicle: saline 104 % of control and 111 % of control | dose: 200.0 mg/kg/injection, schedule: Q01DX005 (ip), vehicle: saline 121 % of control

COC(=O)C[C@@]1(C(=O)OC)[C@H](C(=O)OC)[C@@H](C(=O)OC)N(C(C)=O)N1C
inactive: [5] 105 % of control | [6] 105 % of control | dose: 100.0 mg/kg/injection, schedule: Q04DX002 (ip), vehicle: Klucel (hydroxypropylcellulose) (HPC) 104 % of control | [7] 103 % of control | dose: 200.0 mg/kg/injection, schedule: Q04DX002 (ip), vehicle: Klucel (hydroxypropylcellulose) (HPC) 95 % of control | dose: 400.0 mg/kg/injection, schedule: Q04DX002 (ip), vehicle: Klucel (hydroxypropylcellulose) (HPC) 103 % of control

CCOC(=O)C(=CNc1cc(C)c2[nH]c3ccc(Cl)cc3c2c1C)C(=O)OCC
inactive: [9] 92 % of control | [10] 93 % of control | [11] 86 % of control and 94 % of control

COc1ccc(C2ON=C(c3cc(C)cc(Br)c3O)C2[N+](=O)[O-])cc1 (stereo unspecified)
inactive: [1] 90 % of control | dose: 200.0 mg/kg/injection, schedule: Q04DX002 (ip), vehicle: saline with Tween-80 94 % of control | dose: 400.0 mg/kg/injection, schedule: Q04DX002 (ip), vehicle: saline with Tween-80 94 % of control

CC(=O)c1cc(I)c(O)c2ncccc12
inactive: dose: 6.25 mg/kg/injection, schedule: Q01DX009 (ip), vehicle: saline with Tween-80 97 % of control | dose: 12.5 mg/kg/injection, schedule: Q01DX009 (ip), vehicle: saline with Tween-80 94 % of control | dose: 25.0 mg/kg/injection, schedule: Q01DX009 (ip), vehicle: saline with Tween-80 98 % of control

NC12CCC(c3ccccc31)c1ccccc12
inactive: dose: 60.0 mg/kg/injection, schedule: Q01DX005 (ip), vehicle: Klucel (hydroxypropylcellulose) (HPC) 95 % of control | dose: 120.0 mg/kg/injection, schedule: Q01DX005 (ip), vehicle: Klucel (hydroxypropylcellulose) (HPC) 102 % of control | dose: 240.0 mg/kg/injection, schedule: Q01DX005 (ip), vehicle: Klucel (hydroxypropylcellulose) (HPC) 93 % of control

CN(C)CCN(C)C
inactive: [13] 100 % of control | [8] 95 % of control

O=C(Nc1cccc(Cl)c1)Nn1cnnc1
inactive: dose: 50.0 mg/kg/injection, schedule: Q01DX009 (ip), vehicle: saline 101 % of control | dose: 100.0 mg/kg/injection, schedule: Q01DX009 (ip), vehicle: saline 97 % of control | dose: 200.0 mg/kg/injection, schedule: Q01DX009 (ip), vehicle: saline 91 % of control

C/[N+]([O-])=C/c1ccccc1
inactive: dose: 100.0 mg/kg/injection, schedule: Q04DX003 (ip), vehicle: Klucel (hydroxypropylcellulose) (HPC) 104 % of control | dose: 200.0 mg/kg/injection, schedule: Q04DX003 (ip), vehicle: Klucel (hydroxypropylcellulose) (HPC) 106 % of control | dose: 400.0 mg/kg/injection, schedule: Q04DX003 (ip), vehicle: Klucel (hydroxypropylcellulose) (HPC) 108 % of control

Cc1ccc2c(c1)Sc1c(ccc3ccccc13)N2
inactive: [2] 103 % of control | [3] 102 % of control | [4] 97 % of control

C1=CN2C3=NCCN3C3=NCCN3C2c2ccccc21 (stereo unspecified)
inactive: dose: 12.5 mg/kg/injection, schedule: Q04DX002 (ip), vehicle: Klucel (hydroxypropylcellulose) (HPC) 102 % of control | dose: 25.0 mg/kg/injection, schedule: Q04DX002 (ip), vehicle: Klucel (hydroxypropylcellulose) (HPC) 99 % of control | dose: 50.0 mg/kg/injection, schedule: Q04DX002 (ip), vehicle: Klucel (hydroxypropylcellulose) (HPC) 102 % of control

Cc1c(C)c(C)c(S(=O)(=O)OCCCl)c(C)c1C
inactive: [2] 98 % of control | [3] 92 % of control | [4] 95 % of control

CC1NC(=O)C(C)NC1=O (stereo unspecified)
inactive: dose: 50.0 mg/kg/injection, schedule: Q01DX009 (ip), vehicle: Klucel (hydroxypropylcellulose) (HPC) 93 % of control | dose: 100.0 mg/kg/injection, schedule: Q01DX009 (ip), vehicle: Klucel (hydroxypropylcellulose) (HPC) 96 % of control | dose: 200.0 mg/kg/injection, schedule: Q01DX009 (ip), vehicle: Klucel (hydroxypropylcellulose) (HPC) 94 % of control

CCN(CC)CCOc1ccc(C2N3Cc4ccccc4CN2c2ccccc23)cc1
inactive: dose: 100.0 mg/kg/injection, schedule: Q01DX001 (ip), vehicle: Klucel (hydroxypropylcellulose) (HPC) 99 % of control | dose: 200.0 mg/kg/injection, schedule: Q01DX001 (ip), vehicle: Klucel (hydroxypropylcellulose) (HPC) 108 % of control | dose: 400.0 mg/kg/injection, schedule: Q01DX001 (ip), vehicle: Klucel (hydroxypropylcellulose) (HPC) 99 % of control

Nc1ccc2c3c(cccc13)C(=O)N(CCCBr)C2=O
inactive: [9] 103 % of control | [10] 113 % of control | [11] 107 % of control
